In patent publication US20050276857A1, “Hydrogels formed by non-covalent linkages” (University of Washington, priority 2002, published 2005):
Read-outs that look alike come from different tables or passages of the source.

What was measured:
[1] = Comparison of D- and L-amino acids for forming hydrogels with PVA; type: physicochemical; design: key: {square root} = Gel formation when amino acid was dissolved in water; + = Gel formation when amino acid was dissolved in 1 M NaHCO3; − = No gel formation regardless of solvent for amino acid; *= HCl derivative of amino acid; conditions: 1 ml of 8% PVA; for Gel formation, L: L-amino acid; for Gel formation, D: D-amino acid
Protocol: In these experiments, the ability of D-amino acids to gel PVA was compared directly to the gelling observed using L-amino acids. The concentrations of amino acids used were the same for both the L- and D-forms. All D- and L-amino acids were obtained from Aldrich. Typically, 100 mg of amino acid was dissolved in the minimum amount of water or 1M NaHCO3 (200-600 microliter) necessary to dissolve it. […] For each amino acid/PVA combination, 1 ml of 8% PVA was used (80 mg PVA) and the amount of amino acid was varied. 100 mg of each of amino acids was added unless listed below, with the following exceptions: L-Gln 20 mg; D-Ile 50 mg; L-Phe 20 mg and 40 mg; L-Pro 50 mg and 100 mg; L-Ser 30 mg and 100 mg; L-Thr 30 mg; D-Trp 10 mg and 30 mg; L-Trp 8 mg; L-Tyr 10 mg; D-Tyr 10 mg; L-Val 30 mg.

[2] = for amount necessary to cause precipitation of 1 ml 8% PVA: 1.8 mmol of available OH groups
Protocol: Succinic acid, ethylene diamine, and glycine were each dissolved in water at a typical ratio of 100 mg in 1 ml water.
Aliquots of 100 microliter of each solution were added to PVA to reach final concentrations of either ˜0.5 mmol (low concentration) or ˜1 mmol (high concentration) per 1 ml 8% PVA solution (1.8 mmol of available OH groups in PVA).

Compound | Gel formation, L [1] | Gel formation, D [1] | also measured
N[C@@H](Cc1c[nH]cn1)C(=O)O [L-His] | {square root} |  | 
CC(C)[C@@H](N)C(=O)O [D-Val] |  | + | 
O=C(O)[C@@H]1C[C@@H](O)CN1 [L-Hyp] | − |  | 
N[C@@H](Cc1ccc(O)cc1)C(=O)O [L-Tyr] | + |  | 
CC[C@H](C)[C@H](N)C(=O)O [L-Ile] | − |  | 
N[C@@H](Cc1c[nH]c2ccccc12)C(=O)O [L-Trp] | {square root} |  | 
C[C@@H](N)C(=O)O [D-Ala] |  | − | 
Cl.NC(N)=NCCC[C@@H](N)C(=O)O [D-Arg] |  | −* | 
N[C@H](Cc1c[nH]cn1)C(=O)O [D-His] |  | − | 
N[C@H](CCC(=O)O)C(=O)O [D-Glu] |  | − | 
N[C@H](CO)C(=O)O [D-Ser] |  | {square root} | 
NC(=O)CC[C@H](N)C(=O)O [L-Gln] | + |  | 
C[C@H](O)[C@@H](N)C(=O)O [D-Thr] |  | + | 
CC(C)C[C@H](N)C(=O)O [L-Leu] | − |  | 
N[C@H](Cc1ccccc1)C(=O)O [D-Phe] |  | + | 
N[C@@H](CO)C(=O)O [L-Ser] | + |  | 
N[C@@H](Cc1ccccc1)C(=O)O [L-Phe] | + |  | 
N=C(N)NCCC[C@H](N)C(=O)O [L-Arg] | {square root} |  | 
NCCCC[C@H](N)C(=O)O [L-Lys] | {square root} |  | 
C[C@@H](O)[C@H](N)C(=O)O [L-Thr] | + |  | 
NCCCC[C@@H](N)C(=O)O [D-Lys] |  | {square root} | 

Compound | Gel formation, L [1] | Gel formation, D [1] | also measured
NC(=O)C[C@@H](N)C(=O)O [D-Asn] |  | − | 
N[C@H](CC(=O)O)C(=O)O [D-Asp] |  | − | 
O=C(O)[C@@H]1CCCN1 [L-Pro] | {square root} |  | 
N[C@@H](CS)C(=O)O [L-Cys] | + |  | 
NC(=O)C[C@H](N)C(=O)O [L-Asn] | + |  | 
N[C@H](Cc1c[nH]c2ccccc12)C(=O)O [D-Trp] |  | + | 
CSCC[C@H](N)C(=O)O [L-Met] | − |  | 
N[C@@H](CC(=O)O)C(=O)O [L-Asp] | − |  | 
CC(C)[C@H](N)C(=O)O [L-Val] | + |  | 
NC(=O)CC[C@@H](N)C(=O)O [D-Gln] |  | − | 
O=C(O)CCC(=O)O [Succinic Acid, succinic acid] |  |  | dissolution of gel in water or in 1M HCl ([2]; gel formed at pH 7.0, higher concentration): did not dissolve; dissolution of gel in water or in 1M HCl ([2]; gel formed at pH 9.7, higher concentration): did not dissolve; Gel formation ([2]; pH 2.1): −; gelling over time ([2]; pH 2.1): No additional gelling; initial gelling ([2]; pH 2.1): very slight gelling; Gel formation ([2]; pH 4): −; Gel formation ([2]; pH 7): +++; gelling at higher concentration ([2]; pH 7.0): PVA precipitates out immediately; gelling over time ([2]; pH 7.0): A little more gelling; initial gelling ([2]; pH 7.0, small amounts added): some initial gelling; amount necessary to cause precipitation of 1 ml 8% PVA ([2]; pH 7): 0.85 mmol; gelling at higher concentration ([2]; pH 9.7): PVA precipitates out immediately; gelling over time ([2]; pH 9.7): Additional gelling; initial gelling ([2]; pH 9.7, small amounts added): some initial gelling; Gel formation ([2]; pH 10): +++; amount necessary to cause precipitation of 1 ml 8% PVA ([2]; pH 10): 0.73 mmol
CC[C@@H](C)[C@@H](N)C(=O)O [D-Ile] |  | + | 
CC(C)C[C@@H](N)C(=O)O [D-Leu] |  | + | 
CCCC[C@@H](N)C(=O)O [D-Nle] |  | + | 
NCCN [Ethylene Diamine, ethylene diamine] |  |  | Gel formation ([2]; pH 4): −; gelling over time ([2]; pH 4.4): no gelling over time; initial gelling ([2]; pH 4.4): no immediate gelling; Gel formation ([2]; pH 7): −; gelling over time ([2]; pH 7.2): no additional gelling; initial gelling ([2]; pH 7.2): little immediate gelling; Gel formation ([2]; pH 10): ++; initial gelling ([2]; pH 10.0): immediate gelling; gelling over time ([2]; pH 10.0, first 24 hours): additional gelling; initial gelling ([2]; pH 12.7): immediate gelling; gelling over time ([2]; pH 12.7, first 24 hours): additional gelling; Gel formation ([2]; pH 13.1): +++
N[C@H](Cc1ccc(O)cc1)C(=O)O [D-Tyr] |  | + | 
C[C@H](N)C(=O)O [L-Ala] | + |  | 
N[C@@H](CCC(=O)O)C(=O)O [L-Glu] | − |  | 
NCC(=O)O [Glycine, glycine] | {square root} |  | dissolution of gel in water ([2]; gel formed at pH 7, cured for 1 hour in its solution before placing in water): did not dissolve; Gel formation ([2]; pH 4): −; initial gelling ([2]; pH 4): little gel formation; gelling over time ([2]; pH 4, within the first 24 hours): additional gel formation; Gel formation ([2]; pH 7): +++; gelling at higher concentration ([2]; pH 7): immediate gel formation; gelling over time ([2]; pH 7): More gelling; initial gelling ([2]; pH 7): substantial gelling; amount necessary to cause precipitation of 1 ml 8% PVA ([2]; pH 7): 2.6 mmol; initial gelling ([2]; pH 9.9): much gelling; gelling over time ([2]; pH 9.9, within 24 hours): Considerable additional gelling; Gel formation ([2]; pH 10): ++
O=C(O)[C@H]1CCCN1 [D-Pro] |  | {square root} | 
CSCC[C@@H](N)C(=O)O [D-Met] |  | + | 
